The test system of one data set is HeyA8-MDR cell line. The data set can be described thus: docetaxel IC50 in chemoresistant HeyA8-MDR cell line. It is filed as cell-based. Conditions: Homo sapiens.
The subject of a further data set is SKOV3-TR cell line. The data set can be described thus: docetaxel IC50 in chemoresistant SKOV3-TR cell line. It counts as cell-based. As to conditions: Homo sapiens, SKOV3TR.
Another data set relates to HeyA8 cell line. Kind of data set: docetaxel IC50 in chemosensitive parental HeyA8 cell line. It counts as cell-based. As to conditions: Homo sapiens, HEY A8, one range printed for HeyA8 and SKOV3.
For a further data set, the system named is SKOV3 cell line. The data set can be described thus: docetaxel IC50 in chemosensitive parental SKOV3 cell line. It is filed as cell-based. Conditions: Homo sapiens, SK-OV-3, one range printed for HeyA8 and SKOV3.
The subject of a further data set is PFDN4 mRNA. Kind of data set: RT-PCR screen of siRNA mediated gene silencing of PFDN4 in SKOV3 cells. It is filed as cell-based, human. On the procedure:
RT-PCR: RT-PCR RNA was extracted from ovarian cancer cell lines using TRIzo10 (Invitrogen, Carlsbad, Calif.) as per manufacturer's instructions. 2 μg of total mRNA was reverse transcribed using the Superscript first strand kit (Superscript, Invitrogen, Carlsbad, Calif.), and 2 μL from each reaction was subjected to PCR using standard techniques. PFDN4 primers generated a 413 by product (PFDN4 forward: […] (SEQ ID NO:1); PFDN4 reverse: […] (SEQ ID NO:2)). GAPDH primers generated an approximately 800 by product (GAPDH forward:[…] (SEQ ID NO:3); GAPDH reverse: […] (SEQ ID NO:4)). Semi-quantitative cycling conditions were optimized to the following program: 98° C. for 2 minutes followed by 22 cycles at 95° C. for 30 seconds, 55° C. for 30 seconds and 72° C. for 60 seconds, followed by a final cycle at 72° C. for 5 minutes. PCR products were visualized by agarose gel electrophoresis.
RNA interference: PFDN4 siRNA (sense: […] (SEQ ID NO:6); antisense: […] (SEQ ID NO:7)) and AllStars Negative Control siRNA were purchased from Qiagen (Valencia, Calif.). HeyA8 and SKOV3 were grown to 50% confluence prior to transfection with control or PFDN4 siRNA using Lipofectamine 2000 (Invitrogen, Valencia, Calif.) following manufacturer's instruction. […] Coverslips were washed twice with PBS and finally mounted in anti-fade mounting media and then visualized by fluorescence microscopy. […]

A further data set has as its system PFDN4 protein. The data set can be described thus: siRNA mediated silencing of PFDN4 protein expression in SKOV3 cells (western blot). It is filed as cell-based, human. Conditions: in vitro, by 48 hours. How it is done: Immunoprecipitation and Western Blot Analysis: Each 10 cm plate of cells was lysed in 1 mL NP-40 lysis buffer (50 mM Hepes, pH 7.25, 150 mM NaCl, […], 50 mM NaF, 2 mM EDTA, 1 mM sodium orthovanadate, 1% NP-40), supplemented with Roche complete protease inhibitors (Roche Diagnostics, Indianapolis, Ind.). Cell lysates were cleared by centrifugation at 14000 g for 15 minutes at 4° C. Protein concentration was determined using the BCA Protein Assay (Pierce Biotechnology, Rockford, Ill.). 1 mg total protein lysate was combined with 50 μL of 20% Protein A Sepharose CL4B beads (Amersham Biosciences, Piscataway, N.J.) and 1 μg of anti-PFDN4 antibody. […]
RNA interference: PFDN4 siRNA (sense: […] (SEQ ID NO:6); antisense: […] (SEQ ID NO:7)) and AllStars Negative Control siRNA were purchased from Qiagen (Valencia, Calif.). […] Coverslips were washed twice with PBS and finally mounted in anti-fade mounting media and then visualized by fluorescence microscopy.
To determine the effect of PFDN4 downregulation in ovarian cancer in vitro, the inventors utilized RNA interference (RNAi) technology to silence PFDN4 expression in ovarian cancer cells. […] Using an RT-PCR based screen, the inventors detected a decrease in PFDN4 mRNA within 4 hours following transfection, with greater than 90% silencing observed by 24 hours following transfection (FIG. 5).
Background: Immunoblotting shows a protein as a band on a membrane.

The subject of data set [1] is microtubule cytoskeleton of SKOV3 cells. Kind of data set: indirect immunofluorescent staining for α-tubulin of the microtubule cytoskeleton after siRNA transfection. As to conditions: 48 hours following transfection, fluorescent microscopy, compared to control siRNA. It counts as cell-based, human. How it is done: RNA interference: PFDN4 siRNA (sense: […] (SEQ ID NO:6); antisense: […] (SEQ ID NO:7)) and AllStars Negative Control siRNA were purchased from Qiagen (Valencia, Calif.). HeyA8 and SKOV3 were grown to 50% confluence prior to transfection with control or PFDN4 siRNA using Lipofectamine 2000 (Invitrogen, Valencia, Calif.) following manufacturer's instruction. Cells were typically harvested for analysis 48-72 hours following transfection. Immunofluorescent staining HeyA8 and SKOV3 cells were grown on glass coverslips in 24-well plates for 24 hours prior to transfection with either control or PFDN4 siRNA, and cultured for an additional 48 hours. Media was then aspirated and replaced with 0.5 mL of 4% paraformaldehyde for 30 minutes. Cells were then incubated with 100 mM glycine for 5 minutes, washed once with PBS and then incubated with 0.2% TritonX-100 in PBS for 10 minutes. Coverslips were washed thrice in PBS and then blocked for 30 minutes in 10% goat serum in PBS. Coverslips were then incubated with a 1:2000 dilution of anti-α-tubulin antibodies for 1.5 hours at room temperature. Slides were washed three times with PBS and then incubated for 1 hour with Alexa 555-labelled anti-rabbit secondary antibodies. Coverslips were washed twice with PBS and finally mounted in anti-fade mounting media and then visualized by fluorescence microscopy. […]

Here are results for two compounds from US20120070486A1, “METHODS AND COMPOSITIONS RELATED TO PREFOLDIN AND ITS REGULATION” (priority 2007, published 2012).

As for `CC(=O)O[C@@]12CO[C@@H]1C[C@H](O)[C@@]1(C)C(=O)[C@H](O)C3=C(C)[C@@H](OC(=O)[C@H](O)[C@@H](NC(=O)OC(C)(C)C)c4ccccc4)C[C@@](O)([C@@H](OC(=O)c4ccccc4)[C@H]21)C3(C)C` [docetaxel], the IC50 is no less than 250 nM in the data set with HeyA8-MDR cell line, no less than 250 nM in the data set with SKOV3-TR cell line, 1 to 6.2 nM with HeyA8 cell line and 1 to 6.2 nM in the data set with SKOV3 cell line.
Regarding “PFDN4 siRNA: siRNA, sense UUCAGCGAGUGUUAGCAGATT (SEQ ID NO:6), antisense UCUGCUAACACCGCUGAATT (SEQ ID NO:7), purchased from Qiagen (chemistry not given here)”, the “time to detected decrease in PFDN4 mRNA following transfection” value with PFDN4 mRNA is no more than 4 h. In addition, the “PFDN4 mRNA silencing” value with PFDN4 mRNA (by 24 hours following transfection) was “greater than 90%”. Moreover, the “down-regulation in PFDN4 protein production” value in the data set on PFDN4 protein is on record as “detectable down-regulation”. The “morphology of microtubule cytoskeleton” value in data set [1] is “less organized (FIG. 7B) and more condensed”.

The term IC50 denotes the concentration at which inhibition is half-maximal.
